Molecules are shown by their SMILES.

Three compounds from patent US20240398830A1, “COMPOSITIONS AND USES THEREOF FOR TREATMENT OF NEUROLOGICAL DISORDERS” (UNIVERSITY OF SOUTH FLORIDA, priority 2021, published 2024) can be followed below.

What all share (assay type): cell-based
Test [1] relates to FKBP51. The test is described as follows: Immunoblot analysis of dexamethasone induced FKBP51 levels in HT-22 mouse hippocampal neuronal cell line. The note with it: 20 μM compound, 500 nM dexamethasone, immunoblot (FIG. 2). (In general: Immunoblotting shows a protein as a band on a membrane.)
Test [2] has as its system glucocorticoid receptor response element (GRE). The test is described as follows: GRE reporter luciferase assay in dexamethasone treated HeLa cells. The following applies: dexamethasone treated HeLa cells transfected with empty vector or FKBP51 vector (FIG. 3).
Test [3] concerns FKBP51. The test can be described thus: Immunoblot analysis of dexamethasone induced FKBP51 levels in H4 human neuroglioma cell line. The note with it: 10 μM compound, dexamethasone containing media, 24 h, immunoblot (FIG. 1). The protocol: FIGS. 1A-1B show qPCR (FIG. 1A) and immunoblot analysis (FIG. 1B) of FKBP51 levels in cultures of H4 human neuroglioma cell line treated with methyl acetate vehicle (MeOAc) or ethanol vehicle (ETOH) or 10 μM 15-deoxy-12,14-prostaglandin J2 (J2) or 10 μM 9-nitro oleic acid (9N), or 10 μM 10-nitro oleic acid (ION) in control (dimethyl sulfoxide; DMSO) or dexamethasone (Dex) containing media for 6 h and 24 h. Cultures incubated with treatments for 6 h were used for RNA analysis whereas cultures incubated with treatments for 24 h were used for protein analysis. Bars represent mean±SEM; n=3 independent experiments.

Turning to `CCCCCCCC/C=C(\CCCCCCCC(=O)O)[N+](=O)[O-]` [9-nitro oleic acid, 9-nitro-9E-octadecenoic acid], the “dexamethasone induced FKBP51 protein levels” value with FKBP51 [1] and in the test with FKBP51 [3] was “inhibit dexamethasone induced FKBP51 protein levels” throughout. For the same compound, the “glucocorticoid receptor response (GRE reporter luciferase)” value (from here on “glucocorticoid receptor response”) in test [2] is on record as “alter glucocorticoid receptor response”.
Turning to `CCCCCCCC/C(=C\CCCCCCCC(=O)O)[N+](=O)[O-]` [10-nitro oleic acid, 10-nitro-9E-octadecenoic acid], the “dexamethasone induced FKBP51 protein levels” value in the test with FKBP51 [1] and with FKBP51 [3] was “inhibit dexamethasone induced FKBP51 protein levels” in each case. In test [2], the “glucocorticoid receptor response” value is “alter glucocorticoid receptor response”.
On to `CCCCC/C=C/C=C1/C(=O)C=C[C@@H]1C/C=C\CCCC(=O)O` [15-deoxy-12,14-prostaglandin J2, 15-deoxy-Δ12,14-prostaglandin J2], for which the “dexamethasone induced FKBP51 protein levels” value in the test with FKBP51 [1] and with FKBP51 [3] was “inhibit dexamethasone induced FKBP51 protein levels” throughout. For the same compound, the “glucocorticoid receptor response” value in test [2] is “alter glucocorticoid receptor response”.
